Experiments:
M2R melanoma xenografts = assay: Follow up of tumor response after Pd-Bpheid PDT; type: in vivo, mouse
Method: (i) Animals, tumor model and PDT Male CD1 nude mice (30 g±2 g) were implanted s.c. with M2R melanoma xenografts. PDT of anesthetized mice was performed on tumors (7-9 mm in diameter), as previously described (Zilberstein et al., 2001), with slight changes to allow for manipulation inside the magnet during MRI recording, or to perform PDT on the anesthetized mouse placed on the microscope stage during IVM. Intravenous (i.v.) Pd-Bpheid administration (5 mg/kg in vehicle, provided by Negma-Lerads Laboratoires, Toussus Le-Noble, France) was immediately followed by fiber optic guided tumor illumination (light spot Ø=1 cm^2, 763 nm, 102 J/cm^2) for 10 minutes, using a 1 W diode laser (CeramOptec GmbH, Bonn, Germany). The experiments were performed inside the magnet during the MRI recording (see details below). Room temperature was kept constant (28° C.) throughout the experiments.
PDT was performed in three modes: (i) for tumor therapy, i.v. Pd-Bpheid administration was immediately followed by transcutaneous illumination; (ii) for MR imaging, Pd-Bpheid administration (by remotely activated i.v. catheterization) and transcutaneous illumination were performed inside the magnet (FIG. 5A); and (iii) for IVM, Pd-Bpheid administration and illumination of the semi-transparent mouse ear were conducted on top of the microscope stage.
Controls: Light control: illumination of tumors in mice administered with vehicle alone (without photosensitizer). Dark control, Pd-Bpheid administered to tumor-bearing mice without illumination. Mice were euthanized (CO2) to avoid tumor burden when tumors reached ≧10% of body weight. All experiments were conducted according to institutional animal welfare regulations.
Male CD1 nude mice, s.c. implanted with M2R melanoma xenografts were i.v.-injected with Pd-Bpheid (5 mg/kg) and instantly illuminated for 10 minutes (102 J/cm^2). Hemorrhagic tumor necrosis (10/11 mice within 24-48 h) was accompanied by a strong inflammatory response. Tumors in untreated (4/4) light (4/4 mice) or dark (4/4 mice) controls continued to grow reaching […] of body […] by 9±3 days. […]

[1] = system: M2R melanoma tumor blood vessels; assay: Immunohistochemistry of HNE-protein adducts (lipid peroxidation) in tumors after PDT; type: in vivo, mouse; settings: tumors dissected 1 hour after PDT
From the text: (iii) Immunohistochemistry (IHC): Histological and immunohistological examinations were used for validation of the results obtained during the PDT experiments conducted by MRI and IVM. Dissected tumors were fixed in paraformaldehyde, and embedded in paraffin. IHC of PDT-induced LPO was based on immunodetection of HNE (4-hydroxynonenal), an aldehydic peroxidation product of polyunsaturated fatty acids that forms covalent adducts with proteins by reductive amination and/or Michael type addition (Uchida et al., 1995). PDT-damaged areas were visualized by IHC with anti-HNE. Thus, tumor sections were re-hydrated, blocked with bovine serum albumin for 4 h at 37° C., and treated with rabbit anti-HNE antiserum specifically recognizing HNE adducts (Calbiochem, La Jolla, Calif., USA, 1:400). HRP-conjugated goat anti-rabbit antibody served as 2nd antibody (Jackson, West Grove, Pa., USA) using 3-amino-9-ethylcarbazole as a chromogenic substrate (AEC, Sigma, St. Louis, Mo., USA).
Tumors were dissected 1 hour after PDT, fixed and prepared for IHC. […] In tumors taken from light controls (FIGS. 2B, 2E) or dark controls (data not shown), HNE staining was negative in blood vessels and was seen only in necrotic tumor core (spontaneous, PDT independent). FIGS. 2A, 2B and 2C are parallel adjacent sections of 2D, 2E and 2F, respectively, stained with hematoxylin-eosin.

[2] = system: mouse ear lobe blood vessels; assay: Fluorescent intravital microscopy of PDT-induced hemodynamic changes; type: in vivo
Method: (iv) Intravital microscopy (IVM). Fluorescent IVM was performed with an upright microscope (Nikon Optiphot 2, Kawasaki, Japan) equipped with a thermoregulated stage (37° C.), a CCD camera (50 fps, Applitech, Tel-Aviv, Israel) and a VCR (JVC model HR-J437MS, Yokohama, Japan) for video recording.
Fluorescent IVM in the nude mouse ear lobe (Proske et al, 2000) was used for analysis of changes in vascular diameter, vascular permeability and blood flow. RBC from a donor mouse were labeled ex vivo with 4-(4-(didecylamino)styryl)-N-methylpyridinium iodide (4-Di-10-ASP, 7.5 μg/ml, Molecular Probes, Eugene, Oreg., USA), as previously described (Neeman et al., 2001). The labeled RBC mixed with TRITC-dextran (256 KDa, 0.5 mg/mouse as blood-pool marker, Sigma, St. Louis, Mo., USA) were i.v. administered to the tumor-bearing mouse (labeled cells comprised 1.17+/−0.08% of host RBC as verified on blood smears) and allowed to circulate for 10 min prior to video recording (mag. ×100, 20 min), starting 5 min prior to Pd-Bpheid/light and ending 5 min after the light was turned-off. Mice were euthanized by CO2 at the end of the experiment.
Fluorescence images of blood vessels were acquired every 2 minutes, before, during and up to 10 minutes after illumination. Two hemodynamic parameters were digitally calculated (Scionimage software, Scion Corp., USA) from these images: (1) Changes in blood vessel diameter (arteriolar and venular), and (2) Extravascular leakage of TRITC-dextran (measured as changes in mean pixel intensity at an 2500 μm^2 extravascular region of interest). Both parameters are presented as % of initial value.
It was reported by us (Zilberstein et al., 2001) and others (Dolmans et al., 2002), that in course of anti-vascular PDT, rapid and intense hemodynamic alterations and stasis are observed in the treated tumor site. In this experiment, fluorescence IVM was used to correlate these hemodynamic changes with the MR signal alterations before, during and after Pd-Bpheid PDT. All IVM experiments were performed on the mouse ear lobe model (Proske et al., 2000), since blood vessels in this area can be easily visualized non-invasively under the microscope. Three hemodynamic parameters were measured: (1) changes in vessel diameter (vasoconstriction), (2) extravascular macromolecular leakage, and (3) red blood cell (RBC) flux. […] Significant changes in vessel diameter or RBC flux were not observed in control animals (FIGS. 3B, D and F). […] Changes in tumor perfusion were assessed before, during and after Pd-Bpheid PDT. Pd-Bpheid administration and immediate illumination of the mouse ear lobe, initiated a rapid decrease in perfusion rate both in arterioles and vennules (open and solid circles, respectively), reaching stasis within 3-4 min (FIG. 3C), while illumination alone had no significant effect (FIG. 3D).

human blood [3] = assay: Spectroscopic sPO2 of photosensitized blood
Method: sPO2 of photosensitized blood: Optical spectroscopy. Fresh human blood collected in Na-citrate was steered (37° C.) in a sealed optical cuvette (under N2) without or with Pd-Bpheid (100 μg/ml). Online spectroscopic sPO2 determination was performed with a LESA reflectance spectrometer (Biospec, Moscow, Russia) as described (Neeman et al., 2001). Recording was initiated 2 minutes prior to illumination. Ten illumination cycles (1 min each, 170 mW/cm^2) were performed with spectral measurements (8×5 sec) in the intervening periods when the light was turned-off.
For spectroscopic examination, fresh human blood was subjected to spectral analysis of sPO2 during PDT in vitro. […] Upon illumination, a rapid decline in sPO2 was observed reaching a plateau at ˜25% (≧2 minutes of illumination). In the absence of Pd-Bpheid, illumination had no effect.

human blood [4] = assay: T2* weighted MRI of photosensitized isolated blood (ex vivo); settings: for Decline in T2* weighted MR signal intensity of blood: untreated blood = 100%
Method: (c) Ex-vivo measurements: Freshly collected human blood in sodium citrate was spun down and re-suspended in autologous plasma to 0.6-0.7 hematocrit to minimize red blood cell (RBC) sedimentation during MRI experiments. Blood samples (500 μl) were placed in 6×50 mm glass tubes (Kimble, Div. of Owens, Ill., USA), sealed under N2 and each placed in a 3.5 ml optical plastic cuvette containing 2 ml of PBS. A proton volume coil was used (field of view 7 cm, slice thickness 2 mm, data was zero filled to matrix 512×512). Data were analyzed as the mean signal intensity of the blood sample relative to the surrounding phosphate-buffered saline (PBS).
For the MRI examination, we next determined the effect of PDT on sPO2 in isolated human blood, as manifested in T2* weighted MR signal intensity, under similar conditions. […] Thus, photosensitization of Pd-Bpheid in blood reduces sPO2 as reflected by a significant decrease in signal intensity of […] MR images in the absence of flow and volume changes.

M2R melanoma tumor = assay: Online BOLD-contrast MRI during solid tumor PDT; type: in vivo, mouse
Method: (a) Gradient echo (GE) and multiecho gradient echo (MEGE) MR images were acquired on a horizontal 4.7 T Bruker Biospec spectrometer (Rheinstetten, Germany), as described previously (Gilead et al., 1999). Imaging parameters are as follows: slice thickness 0.8 mm, TR 230 ms, TE 10 ms for GE and TE 10, 21.24 and 32.48 ms for MEGE, flip angel 40°, acquisition (AQ) time 117 sec, matrix 256×256 pixels.
(b) Animal studies: Whole body excitation coil and an RF decoupled 1.5 cm surface coil were used for improving signal/noise ratio (field of view 4 cm, slice thickness 0.8 mm). Mice were anesthetized, catheterized, and restrained by adhesive tape (supine/lateral) to locate the tumor above the center of the MRI surface coil; the laser optic fiber was fixed in place to illuminate the tumor area (FIG. 5A). After four sequential images were acquired, mice were treated i.v. with Pd-Bpheid (5 mg/kg) followed by 10 min illumination, while 11 more images were acquired. Room temperature was maintained at 28° C.
(d) Data analysis: MRI data was analyzed using Matlab (The MathWorks Inc., Natick, Mass., USA), Orisis (Version 4.0.9, Geneva, Switzerland) and Paravision 2.1.1 (Bruker, Rheinstetten, Germany). MR signal intensity was derived from each image, either from the region of interest inside the tumor or in control tissue, and normalized to the first image. Response maps were generated by division of each image by the average of the first 2 pre-PDT images. R2* maps were derived by noise weighted linear regression of log(SI), for each pixel. Only pixels with fit of R^2≧0.36 were analyzed. R2*: MRI relaxivity parameter; R^2: statistical correlation parameter.
Having shown that photosensitization of Pd-Bpheid induces changes in blood oxygen levels, we next attempted to detect such changes during PDT of a solid tumor in vivo, using MRI. BOLD-MR imaging was applied before, during and after PDT of the solid subcutaneous M2R melanoma tumor. Pd-Bpheid administration, followed by instant tumor illumination, induced a profound decrease in the MR signal intensity (25-40%) solely within the illuminated tumor area (FIGS. 5C, 6A and 6E). […] MR signal attenuation developed during the first 6-7 minutes of illumination and remained low throughout the experiment.
The MRI value ΔR2* (relaxivity difference in T2*-weighted acquisitions) is dependent only on changes in blood oxygenation and volume, and is not dependent on blood flow.

normal canine prostate = settings: dog, in vivo; cited from earlier work
[5] = system: melanoma, glioma, sarcoma and human prostate xenografts; settings: cited from earlier work; for Cure rates after anti-vascular PDT: mice and rats

## CC[C@H]1c2cc3[n-]c4c(c3C)C(=O)[C@H](C(=O)OC)c4c3nc(cc4[n-]c(cc(n2)[C@@H]1C)c(C(C)=O)c4C)[C@@H](C)[C@@H]3CCC(=O)O.[Pd+2] [Pd-Bpheid, Palladium-bacteriopheophorbide]
M2R melanoma xenografts; 5 mg/kg i.v., instant illumination 10 min, 102 J/cm^2, within 24-48 h
  Hemorrhagic tumor necrosis (responding/treated mice): 10/11
M2R melanoma xenografts; 5 mg/kg, no light
  Tumors continued to grow (dark control, Pd-Bpheid without illumination): 4/4
M2R melanoma xenografts; one mouse, 5 mg/kg i.v., 763 nm, 102 J/cm^2, day 54 post treatment
  Tumor outcome in visual follow-up: cure
[1]
  HNE adduct immunostaining (ROS-induced LPO): massive generation of HNE adducts co-localized with tumor blood vessels
[2]; 2-3 minutes after onset of illumination
  Reduction in arteriolar diameter: about 50%
[2]; 2-6 minutes after onset of illumination
  Blood flow (RBC flux): sharp decline in blood flow
[2]; FIG. 3C
  Time to complete blood stasis after onset of illumination: 6 to 7 min
[2]; FIG. 3C, immediate illumination of ear lobe
  Time to stasis (perfusion rate in arterioles and venules): 3 to 4 min
[2]; at end of illumination period, ± S.E.
  Extravascular TRITC-dextran (256 KDa) leakage, highest level: 145±8 % of baseline
Human blood [3]; Pd-Bpheid 100 μg/ml, 170 mW/cm^2, ≧2 minutes of illumination
  sPO2 plateau upon illumination: ~25%
Human blood [3]; within the first min of illumination, FIG. 4A
  Decline in sPO2: ~75%
Human blood [4]; 1 min illumination
  Decline in T2* weighted MR signal intensity of blood: 38.1%
Human blood [4]; 5 min illumination
  Decline in T2* weighted MR signal intensity of blood: 74.4%
Human blood [4]; Pd-Bpheid without light
  MR signal intensity of dark control blood: essentially identical to that of untreated blood
M2R melanoma tumor; 5 mg/kg i.v., 10 min illumination
  Decrease in MR signal intensity in illuminated tumor: 25-40%
M2R melanoma tumor; Pd-Bpheid without illumination, FIG. 6C
  Change in MR signal intensity, dark tumor control: No detectable change in signal intensity
M2R melanoma tumor; during PDT
  Time to generation of photosensitized MR BOLD-contrast: ≤ 2 min
M2R melanoma tumor; from onset of illumination
  Time over which MR signal attenuation developed: 6 to 7 min
Normal canine prostate
  Outcome of PDT in canine prostate: full necrosis of the tumor without functional urethral damage or damage to other adjacent tissues
[5]; Schreiber et al., 2002
  Incidence of metastasis compared with conventional surgery: decreased the incidence of metastasis
[5]
  Cure rates after anti-vascular PDT: high cure rates

## bacteriochlorophyll-serine [Bchl-Ser, reference compound]
[5]
  Cure rates after anti-vascular PDT: high cure rates

— patent US7715901B2, “Sensitized online BOLD-MRI imaging method” (Yeda Research and Development Co. Ltd., priority 2002, dated 2010)
